From PMC7317179 (The Korean Journal of Physiology & Pharmacology : …, 2020)

Biological target: T1, anoctamin-1 (hANO1, TMEM16A) (Homo sapiens, UniProt Q5XXA6)
T1 sequence (Q5XXA6 1-986): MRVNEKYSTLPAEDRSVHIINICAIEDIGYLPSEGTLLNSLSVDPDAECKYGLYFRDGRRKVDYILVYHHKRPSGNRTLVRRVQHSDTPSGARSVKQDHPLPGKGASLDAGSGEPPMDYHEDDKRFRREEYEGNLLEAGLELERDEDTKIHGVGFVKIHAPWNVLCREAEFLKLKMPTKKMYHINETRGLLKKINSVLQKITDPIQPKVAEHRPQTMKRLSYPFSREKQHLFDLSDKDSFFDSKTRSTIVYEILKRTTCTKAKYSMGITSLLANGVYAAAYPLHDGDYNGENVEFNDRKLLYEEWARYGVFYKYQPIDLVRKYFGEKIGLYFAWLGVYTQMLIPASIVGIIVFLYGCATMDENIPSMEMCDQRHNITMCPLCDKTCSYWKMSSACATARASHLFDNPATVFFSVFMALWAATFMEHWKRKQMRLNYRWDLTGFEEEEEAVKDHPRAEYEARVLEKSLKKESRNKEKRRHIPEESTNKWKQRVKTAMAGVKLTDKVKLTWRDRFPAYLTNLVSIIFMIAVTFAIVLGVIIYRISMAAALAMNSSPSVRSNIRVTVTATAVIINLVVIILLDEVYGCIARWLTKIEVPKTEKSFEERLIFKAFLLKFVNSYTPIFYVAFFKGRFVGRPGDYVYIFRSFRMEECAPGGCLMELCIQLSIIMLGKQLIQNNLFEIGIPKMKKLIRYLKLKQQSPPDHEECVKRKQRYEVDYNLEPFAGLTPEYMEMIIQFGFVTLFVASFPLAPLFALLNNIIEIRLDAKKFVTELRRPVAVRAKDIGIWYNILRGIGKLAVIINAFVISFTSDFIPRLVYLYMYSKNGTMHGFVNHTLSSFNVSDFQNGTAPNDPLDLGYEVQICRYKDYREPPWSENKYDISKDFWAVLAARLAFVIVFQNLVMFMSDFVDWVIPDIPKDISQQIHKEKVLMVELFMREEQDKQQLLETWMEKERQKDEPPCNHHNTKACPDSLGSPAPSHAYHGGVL
Assay: whole-cell patch clamp, hANO1-HEK293T
Format: cell-based

## O=c1cc(-c2ccc(O)c(O)c2)oc2cc(O)cc(O)c12 [compound 5, luteolin]
  IC50: 27.9 ± 1.61 µM
